Converted amounts (≈) assume the structure as drawn. The source made the active and inactive calls. The calls are words filed in the database; no cut-off is given here.
How the values were obtained:
[1] = target: Serine/threonine-protein kinase mTOR (Homo sapiens, UniProt P42345); assay: Inhibition of mTOR by DELFIA
PC-3 = assay: cells; settings: Homo sapiens, PC-3, 72 h
[2] = Metabolic stability in mouse liver microsomes assessed as half life; type: ADME, Microsome
MDA-MB-361 [3] = assay: cells; settings: Homo sapiens, MDA-MB-361, 72 h
[4] = Metabolic stability in human liver microsomes assessed as half life; type: ADME, Microsome
in vitro = settings: rat
cells = settings: Homo sapiens, MDA-MB-361, 4 h
[5] = Solubility at pH 7.4; type: physicochemical; settings: buffer
[6] = target: Phosphatidylinositol 4,5-bisphosphate 3-kinase catalytic subunit gamma isoform (Homo sapiens, UniProt P48736); assay: Inhibition of human PI3Kgamma by fluorescence polarization format assay
[7] = target: Phosphatidylinositol 4,5-bisphosphate 3-kinase catalytic subunit alpha isoform (Homo sapiens, UniProt P42336)
[8] = Inhibition of Akt T308 phosphorylation in human MDA-MB-361 cells by Western blotting; type: cell-based
[9] = target: Phosphatidylinositol 4,5-bisphosphate 3-kinase catalytic subunit beta isoform (Homo sapiens, UniProt P42338); assay: Inhibition of PI3Kbeta
Mus musculus [10] = species: Mus musculus; assay: Toxicity in mouse assessed as weight loss; type: organism-based; settings: in vivo
Mus musculus [11] = assay: Antitumor activity against human MDA-MB-361 cells implanted in mouse assessed as suppression of P70S6K phosphorylation at 100 mg/kg, iv after 8 hrs; type: functional, organism-based; design: dose 100 mg/kg
Mus musculus [12] = assay: Antitumor activity against human MDA-MB-361 cells implanted in mouse assessed as suppression of Akt S473 phosphorylation at 100 mg/kg, iv after 8 hrs; type: functional, organism-based; design: dose 100 mg/kg
Mus musculus [13] = assay: Antitumor activity against human MDA-MB-361 cells implanted in mouse assessed as suppression of S6 phosphorylation at 50 mg/kg, iv after 8 hrs; type: functional, organism-based; design: dose 50 mg/kg
MDA-MB-361 [14] = assay: Antitumor activity against human MDA-MB-361 cells implanted in mouse assessed as inhibition of regrowth at until day 16 and 20 at 25 mg/kg, iv once daily for 5 days; type: functional, organism-based; design: dose 25 mg/kg
Mus musculus [15] = assay: Antitumor activity against human MDA-MB-361 cells implanted in mouse assessed as suppression of Akt S473 phosphorylation at 50 mg/kg, iv after 8 hrs; type: functional, organism-based; design: dose 50 mg/kg
Mus musculus [16] = assay: Antitumor activity against human MDA-MB-361 cells implanted in mouse assessed as suppression of S6 phosphorylation at 100 mg/kg, iv after 8 hrs; type: functional, organism-based; design: dose 100 mg/kg
Mus musculus [17] = assay: Antitumor activity against human MDA-MB-361 cells implanted in mouse assessed as suppression of Akt T308 phosphorylation at 50 mg/kg, iv after 8 hrs; type: functional, organism-based; design: dose 50 mg/kg
MDA-MB-361 [18] = assay: Antitumor activity against human MDA-MB-361 cells implanted in mouse assessed as inhibition of regrowth at until day 16 and 20 at 50 mg/kg, iv once daily for 5 days; type: functional, organism-based; design: dose 50 mg/kg
[19] = Plasma concentration in human MDA-MB-361 cells implanted mouse at 50 mg/kg, iv after 8 hrs; type: ADME, organism-based; design: dose 50 mg/kg, route intravenous
[20] = Drug level in human MDA-MB-361 cells implanted mouse tumor at 50 mg/kg, iv after 8 hrs; type: ADME, organism-based, Neoplasm; design: dose 50 mg/kg, route intravenous; settings: read-out: Drug uptake
Mus musculus [21] = assay: Antitumor activity against human MDA-MB-361 cells implanted in mouse assessed as suppression of Akt T308 phosphorylation at 100 mg/kg, iv after 8 hrs; type: functional, organism-based; design: dose 100 mg/kg
Mus musculus [22] = assay: Antitumor activity against human MDA-MB-361 cells implanted in mouse assessed as […] of cleavage of PARP at 50 mg/kg, iv after 8 hrs; type: functional, organism-based; design: dose 50 mg/kg
[23] = Solubility at pH 3; type: physicochemical; settings: buffer
Mus musculus [24] = assay: Antitumor activity against human MDA-MB-361 cells implanted in mouse assessed as suppression of P70S6K phosphorylation at 50 mg/kg, iv after 8 hrs; type: functional, organism-based; design: dose 50 mg/kg
Mus musculus [25] = assay: Antitumor activity against human MDA-MB-361 cells implanted in mouse assessed as […] of cleavage of PARP at 100 mg/kg, iv after 8 hrs; type: functional, organism-based; design: dose 100 mg/kg
MDA-MB-361 [26] = assay: Antitumor activity against human MDA-MB-361 cells implanted in mouse assessed as inhibition of regrowth at until day 70 at 100 mg/kg, iv once daily for 5 days; type: functional, organism-based; design: dose 100 mg/kg

Sequence of Phosphatidylinositol 4,5-bisphosphate 3-kinase catalytic subunit gamma isoform (P48736 whole entry, canonical isoform): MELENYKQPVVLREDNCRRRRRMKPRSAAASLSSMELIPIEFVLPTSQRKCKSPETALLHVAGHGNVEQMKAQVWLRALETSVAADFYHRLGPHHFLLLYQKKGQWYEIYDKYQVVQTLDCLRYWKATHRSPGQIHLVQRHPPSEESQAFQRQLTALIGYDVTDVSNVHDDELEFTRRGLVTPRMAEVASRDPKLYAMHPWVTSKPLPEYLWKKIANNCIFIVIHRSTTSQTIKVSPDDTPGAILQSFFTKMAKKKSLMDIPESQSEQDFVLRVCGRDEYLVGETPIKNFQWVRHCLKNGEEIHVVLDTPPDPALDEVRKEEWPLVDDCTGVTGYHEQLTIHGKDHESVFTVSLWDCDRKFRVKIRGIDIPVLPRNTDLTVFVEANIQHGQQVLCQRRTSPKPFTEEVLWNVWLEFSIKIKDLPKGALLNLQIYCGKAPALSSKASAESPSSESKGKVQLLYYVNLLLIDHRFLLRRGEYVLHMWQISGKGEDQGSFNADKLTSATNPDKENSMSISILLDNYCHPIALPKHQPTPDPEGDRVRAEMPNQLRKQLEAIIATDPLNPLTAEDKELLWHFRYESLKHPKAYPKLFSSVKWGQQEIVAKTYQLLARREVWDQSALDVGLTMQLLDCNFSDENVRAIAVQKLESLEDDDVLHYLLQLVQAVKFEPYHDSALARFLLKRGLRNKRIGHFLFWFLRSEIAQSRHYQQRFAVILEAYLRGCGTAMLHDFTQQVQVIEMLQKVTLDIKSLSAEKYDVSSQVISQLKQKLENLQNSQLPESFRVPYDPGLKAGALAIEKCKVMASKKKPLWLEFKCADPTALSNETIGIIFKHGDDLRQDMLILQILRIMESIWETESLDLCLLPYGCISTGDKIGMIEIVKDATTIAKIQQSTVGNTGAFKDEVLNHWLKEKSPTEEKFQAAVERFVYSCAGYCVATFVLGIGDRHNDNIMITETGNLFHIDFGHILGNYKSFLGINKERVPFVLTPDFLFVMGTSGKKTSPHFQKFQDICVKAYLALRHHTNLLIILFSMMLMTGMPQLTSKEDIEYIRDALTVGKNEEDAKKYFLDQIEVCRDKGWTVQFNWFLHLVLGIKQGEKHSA
Sequence of Phosphatidylinositol 4,5-bisphosphate 3-kinase catalytic subunit alpha isoform (P42336 whole entry, canonical isoform): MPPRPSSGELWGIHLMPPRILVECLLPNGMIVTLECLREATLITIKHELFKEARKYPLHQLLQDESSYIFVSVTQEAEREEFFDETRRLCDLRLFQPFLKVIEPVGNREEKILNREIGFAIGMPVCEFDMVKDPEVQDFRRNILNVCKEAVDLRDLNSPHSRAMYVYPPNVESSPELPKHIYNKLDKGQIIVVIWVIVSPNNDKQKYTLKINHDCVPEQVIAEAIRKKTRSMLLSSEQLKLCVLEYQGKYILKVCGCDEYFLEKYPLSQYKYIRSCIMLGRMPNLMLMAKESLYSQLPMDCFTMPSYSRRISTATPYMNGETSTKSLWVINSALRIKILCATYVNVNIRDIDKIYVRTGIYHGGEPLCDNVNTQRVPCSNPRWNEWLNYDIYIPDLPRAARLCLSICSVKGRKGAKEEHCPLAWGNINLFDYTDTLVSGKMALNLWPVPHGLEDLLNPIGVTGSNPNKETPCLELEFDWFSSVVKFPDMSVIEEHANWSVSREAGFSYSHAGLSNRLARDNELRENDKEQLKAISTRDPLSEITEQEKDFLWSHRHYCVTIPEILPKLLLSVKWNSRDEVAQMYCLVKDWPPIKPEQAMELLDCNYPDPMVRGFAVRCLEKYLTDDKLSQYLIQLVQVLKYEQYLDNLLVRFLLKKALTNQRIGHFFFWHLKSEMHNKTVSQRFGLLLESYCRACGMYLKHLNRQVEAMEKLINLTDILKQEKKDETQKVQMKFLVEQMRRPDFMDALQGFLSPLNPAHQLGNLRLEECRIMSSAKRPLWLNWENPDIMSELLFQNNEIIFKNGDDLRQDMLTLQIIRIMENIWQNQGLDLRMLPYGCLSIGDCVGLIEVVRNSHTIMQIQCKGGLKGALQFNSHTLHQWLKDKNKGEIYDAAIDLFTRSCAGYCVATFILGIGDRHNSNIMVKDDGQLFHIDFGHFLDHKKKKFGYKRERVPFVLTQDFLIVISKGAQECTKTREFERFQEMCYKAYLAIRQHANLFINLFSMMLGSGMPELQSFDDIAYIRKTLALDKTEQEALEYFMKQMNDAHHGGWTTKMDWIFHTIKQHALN
Sequence of Phosphatidylinositol 4,5-bisphosphate 3-kinase catalytic subunit beta isoform (P42338 whole entry, canonical isoform): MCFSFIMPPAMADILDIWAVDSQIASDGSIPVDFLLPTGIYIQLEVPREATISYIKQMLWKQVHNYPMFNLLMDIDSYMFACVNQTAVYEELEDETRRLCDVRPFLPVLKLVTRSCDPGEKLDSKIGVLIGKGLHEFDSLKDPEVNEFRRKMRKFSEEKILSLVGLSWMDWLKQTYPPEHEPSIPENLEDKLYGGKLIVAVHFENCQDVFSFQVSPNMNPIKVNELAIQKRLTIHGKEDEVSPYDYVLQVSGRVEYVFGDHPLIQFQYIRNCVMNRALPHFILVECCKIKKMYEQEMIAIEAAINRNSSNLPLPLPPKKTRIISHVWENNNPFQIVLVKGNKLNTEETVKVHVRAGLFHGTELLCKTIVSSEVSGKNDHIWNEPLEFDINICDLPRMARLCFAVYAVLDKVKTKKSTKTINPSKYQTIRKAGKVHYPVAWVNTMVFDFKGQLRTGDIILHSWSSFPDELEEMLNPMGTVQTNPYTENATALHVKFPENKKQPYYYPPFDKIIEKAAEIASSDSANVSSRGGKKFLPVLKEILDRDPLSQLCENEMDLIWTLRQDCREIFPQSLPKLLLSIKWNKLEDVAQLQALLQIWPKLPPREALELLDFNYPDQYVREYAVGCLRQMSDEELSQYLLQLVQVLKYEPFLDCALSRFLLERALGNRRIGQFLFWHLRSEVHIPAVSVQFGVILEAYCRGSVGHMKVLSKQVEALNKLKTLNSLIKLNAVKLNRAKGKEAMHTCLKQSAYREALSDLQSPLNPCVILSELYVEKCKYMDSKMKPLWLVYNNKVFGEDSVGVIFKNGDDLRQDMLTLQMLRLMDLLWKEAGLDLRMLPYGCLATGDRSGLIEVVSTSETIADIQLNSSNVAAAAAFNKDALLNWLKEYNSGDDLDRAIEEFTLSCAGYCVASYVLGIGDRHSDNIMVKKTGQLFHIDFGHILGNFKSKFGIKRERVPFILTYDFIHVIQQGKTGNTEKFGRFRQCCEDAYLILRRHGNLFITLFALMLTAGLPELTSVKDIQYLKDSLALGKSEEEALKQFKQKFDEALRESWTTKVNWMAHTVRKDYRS

IC50 [1] [nM] | IC50 (PC-3) [nM] | IC50 (MDA-MB-361 [3]) [nM] | half-life [4] [min] | half-life (in vitro; liver microsomes) [min] | IC50 (cells) [nM] | solubility [5] [µg/mL] | IC50 [7] [nM] | Structure (SMILES) | other results
2.7 | 96 | 68 | > 30 | 21 | 47 |  |  | CCCCNC(=O)c1ccc(NC(=O)Nc2ccc(-c3nc(N4CCOCC4)c4nnn(CC)c4n3)cc2)cc1 | half-life [2]: 27 min
2.95 | 281 | 198 |  |  |  | 1 (≈ 2.32 µM) |  | Cn1nnc2c(N3CCOCC3)nc(-c3ccc(NC(=O)Nc4cccnc4)cc3)nc21 | half-life (in vitro; microsomes): 12 min
250 | 393 |  |  |  |  |  |  | OCc1cccc(-c2nc(N3CCOCC3)c3nnn(C4CCN(Cc5ccccc5)CC4)c3n2)c1 | 
1.7 |  |  | > 30 | 15 | 5 |  |  | CCn1nnc2c(N3CCOCC3)nc(-c3ccc(NC(=O)Nc4ccc(C(=O)N5CCN(C)CC5)cc4)cc3)nc21 | IC50 [9]: 7 nM; Activity (Mus musculus [10]): Non-toxic; Activity (Mus musculus [11]): Active; Activity (Mus musculus [12]): Active; half-life [2]: > 30 min; Activity (Mus musculus [13]): Active; Activity (MDA-MB-361 [14]): inactive; Activity (Mus musculus [15]): Active; Activity (Mus musculus [16]): Active; Activity (Mus musculus [17]): Active; Activity (MDA-MB-361 [18]): inactive; concentration at 8 h [19]: 525 ng/mL; concentration at 8 h [20]: 2220 ng/mL; Activity (Mus musculus [21]): Active; Activity (Mus musculus [22]): Active; solubility [23]: 100 µg/mL (≈ 175 µM); Activity (Mus musculus [24]): Active; Activity (Mus musculus [25]): Active; Activity (MDA-MB-361 [26]): Active
1.21 | 88 | 36 | 16 | 23 | 65 | 1 (≈ 1.69 µM) | 6.8 | CCn1nnc2c(N3CCOCC3)nc(-c3ccc(NC(=O)Nc4ccc(C(=O)NCCc5ccccn5)cc4)cc3)nc21 | IC50 [6]: 22 nM; half-life [2]: 19 min; solubility [23]: 4 µg/mL (≈ 6.75 µM)
0.56 | 33 | 29 | > 30 |  | 27 | 1 (≈ 1.94 µM) | 3 | CCNC(=O)c1ccc(NC(=O)Nc2ccc(-c3nc(N4CCOCC4)c4nnn(CC)c4n3)cc2)cc1 | IC50 [6]: 17.2 nM; half-life [2]: 29 min; half-life (in vitro; microsomes): 16 min
0.35 | 110 | 47 |  | 25 |  | 1 (≈ 1.84 µM) |  | CC(C)n1nnc2c(N3CCOCC3)nc(-c3ccc(NC(=O)Nc4ccc(N5CCOCC5)cc4)cc3)nc21 | 

The next lines start with the compound.

Structure (SMILES) | IC50 [1] [nM] | IC50 (PC-3) [nM] | IC50 (MDA-MB-361 [3]) [nM] | half-life [4] [min] | half-life (in vitro; liver microsomes) [min] | IC50 (cells) [nM] | solubility [5] [µg/mL] | IC50 [7] [nM] | other results
CCn1nnc2c(N3CCOCC3)nc(-c3ccc(NC(=O)Nc4ccc(C(=O)OC)cc4)cc3)nc21 | 2.55 | 285 | 199 |  | 15 |  |  |  | 
CCn1nnc2c(N3CCOCC3)nc(-c3ccc(NC(=O)Nc4cccnc4)cc3)nc21 | 0.89 |  |  |  |  |  |  |  | 
CCn1nnc2c(N3CCOCC3)nc(-c3ccc(NC(=O)Nc4cccs4)cc3)nc21 | 3 | 133 | 81 |  | 10 |  | 1 (≈ 2.22 µM) |  | 
CCn1nnc2c(N3CCOCC3)nc(-c3ccc(NC(=O)Nc4ccc(C(N)=O)cc4)cc3)nc21 | 0.39 | 65 | 28 |  |  |  | 6 (≈ 12.3 µM) | 2.4 | IC50 [6]: 12.2 nM; half-life (in vitro; microsomes): 21 min
CCn1nnc2c(N3CCOCC3)nc(-c3ccc(NC(=O)Nc4ccc(C(=O)N(C)C)cc4)cc3)nc21 | 0.75 | 17 | 16 | > 30 | 14 | 8 | 1 (≈ 1.94 µM) | 1.4 | 
CC(C)n1nnc2c(N3CCOCC3)nc(-c3ccc(NC(=O)Nc4ccc(CO)cc4)cc3)nc21 | 0.32 | 55 | < 30 |  |  |  |  | 3.5 | IC50 [6]: 24.8 nM; IC50 [8]: 8 nM
O=C(Nc1ccc(-c2nc(N3CCOCC3)c3nnn(C4CC4)c3n2)cc1)Nc1cccs1 | 3.05 | 149 | 73 |  | 15 |  |  |  | 

— ChEMBL document CHEMBL1157707, “Lead optimization of N-3-substituted 7-morpholinotriazolopyrimidines as dual phosphoinositide 3-kinase/mammalian target of rapamycin inhibitors: discovery of PKI-402” (J Med Chem, 2010)
